In article PMC5418920 (The Open Medicinal Chemistry Journal, 2017):
pIC50: −log10 of the molar value.

Molecular target: ALR2 (Rattus norvegicus, UniProt P07943)
Test: ALR2 enzymatic inhibition, spectrophotometric NADPH oxidation at 340 nm
Assay type: biochemical

`COc1cccc(COc2ccccc2C2(C)CN(CC(=O)O)C(=O)O2)c1` (centres unmarked) [Compound 11, 2-(5-(2-((3-Methoxybenzyl)oxy)phenyl)-5-methyl-2-oxooxazolidin-3-yl)acetic acid] gave a pIC50 of 5.38.
`CC1(C)CC2(CN(CC(=O)O)CCO2)c2cc(Br)ccc2O1` (centres unmarked) [Compound 10, 2-(6-Bromo-2,2-dimethylspiro[chroman-4,2'-morpholin]-4'-yl) acetic acid] gave a pIC50 of 5.38.
Compound `CC1(C)CC2(CN(CC(=O)O)C(=O)O2)c2cc(Br)ccc2O1` (centres unmarked) [Compound 6, 2-(6-Bromo-2,2-dimethyl-2'-oxospiro[chroman-4,5'-oxazolidin]-3'-yl) acetic acid] has a pIC50 of 4.76.
Compound `COc1cc(COc2ccccc2C2(C)CN(CC(=O)O)C(=O)O2)cc(OC)c1OC` (centres unmarked) [Compound 13, 2-(5-Methyl-2-oxo-5-(2-((3,4,5-trimethoxybenzyl)oxy)phenyl)oxazolidin-3-yl)acetic acid] has a pIC50 of 5.50.
`CC1(C)CC2(CN(CC(=O)O)C(=O)CO2)c2ccccc2O1` (centres unmarked) [Compound 7, 2-(2,2-Dimethyl-5'-oxospiro[chroman-4,2'-morpholin]-4'-yl) acetic acid] was tested, and the pIC50 was 5.70.
Work on `CC1(C)CC2(CN(CC(=O)O)C(=O)O2)c2ccccc2O1` (centres unmarked) [Compound 5, 2-(2,2-Dimethyl-2'-oxospiro[chroman-4,5'-oxazolidin]-3'-yl) acetic acid] yielded a pIC50 of 4.37.
`COc1ccc(C2(C)CC3(CN(CC(=O)O)C(=O)CO3)c3cc(Br)ccc3O2)cc1` (centres unmarked) [Compound 4, 2-(6-Bromo-2-(4-methoxyphenyl)-2-methyl-5'-oxospiro[chroman-4,2'-morpholin]-4'-yl) acetic acid] was tested, and the pIC50 was 5.30 and the “fold reduction in ARL2 inhibitory efficacy compared to parent 2” value (IC50 4.97 vs 0.58 μM) was about 8 fold.
